Measured values from patent US20230266302A1, “SYNTHESIS AND USE OF N-BENZYL SULFONAMIDES” (THE UNIVERSITY OF TULSA, priority 2020, published 2023).

Legend:
Experiment in all cases: ATP level assay (CellTiter-Glo), percent of control
Type in all cases: cell-based
[1] = tested on: BxPC3 (pancreatic cancer); conditions: two hour incubation; for activity at 100 µM: Homo sapiens, BXPC-3, 2 h, compound alone, control DMSO, read-out: POC (percent of control) BxPC3
H293 (kidney cancer) = conditions: two hour incubation; for activity at 100 µM: 2 h, compound alone, control DMSO, read-out: POC (percent of control) H293
HDF (normal cells) = conditions: two hour incubation; for activity at 100 µM: 2 h, compound alone, control DMSO, read-out: POC (percent of control) HDF
HeLa (cervical cancer) = conditions: two hour incubation; for activity at 100 µM: Homo sapiens, HeLa, 2 h, compound alone, control DMSO, read-out: POC (percent of control) HeLa
[2] = tested on: MCF10A (non-cancerous breast); conditions: two hour incubation; for activity at 100 µM: Homo sapiens, MCF-10A, 2 h, compound alone, control DMSO, read-out: POC (percent of control) MCF10A
MCF7 (breast cancer) = conditions: two hour incubation; for activity at 100 µM: Homo sapiens, MCF7, 2 h, compound alone, control DMSO, read-out: POC (percent of control) MCF7
MDA-MB (breast cancer) = conditions: two hour incubation; for activity at 100 µM: 2 h, compound alone, control DMSO, read-out: POC (percent of control) MDA-MB
NCI-H196 (lung cancer) = conditions: two hour incubation; for activity at 100 µM: NCI-H196, 2 h, compound alone, control DMSO, read-out: POC (percent of control) NCI-H196
T47D (breast cancer) = conditions: two hour incubation; for activity at 100 µM: Homo sapiens, T47D, 2 h, compound alone, control DMSO, read-out: POC (percent of control) T47D
[3] = compound 100 uM + 2DG (about 10-20 mM)
[4] = compound 100 uM + rotenone (approximately 1.25 μM)

Cc1ccc(S(=O)(=O)NCc2c[nH]c3cccc(Br)c23)cc1 [Compound 5, N-[(4-bromo-1H-indol-3-yl)methyl]-4-methylbenzenesulfonamide]
activity at 100 µM [1]: 54.3% | POC (percent of control) BxPC3 [1, 3]: 10.5% of control | POC (percent of control) BxPC3 [1, 4]: 36.5% of control | activity at 100 µM (H293 (kidney cancer)): 49.7% | POC (percent of control) H293 (H293 (kidney cancer); [3]): 17.2% of control | POC (percent of control) H293 (H293 (kidney cancer); [4]): 41.2% of control | activity at 100 µM (HDF (normal cells)): 70.5% | POC (percent of control) HDF (HDF (normal cells); [3]): 16.1% of control | POC (percent of control) HDF (HDF (normal cells); [4]): 83.5% of control | activity at 100 µM (HeLa (cervical cancer)): 76.1% | POC (percent of control) HeLa (HeLa (cervical cancer); [3]): 22.3% of control | POC (percent of control) HeLa (HeLa (cervical cancer); [4]): 31.9% of control | activity at 100 µM [2]: 55.3% | POC (percent of control) MCF10A [2, 3]: 15.8% of control | POC (percent of control) MCF10A [2, 4]: 45% of control | activity at 100 µM (MCF7 (breast cancer)): 86.4% | POC (percent of control) MCF7 (MCF7 (breast cancer); [3]): 18.7% of control | POC (percent of control) MCF7 (MCF7 (breast cancer); [4]): 55.6% of control | activity at 100 µM (MDA-MB (breast cancer)): 54.4% | POC (percent of control) MDA-MB (MDA-MB (breast cancer); [3]): 24.7% of control | POC (percent of control) MDA-MB (MDA-MB (breast cancer); [4]): 24.6% of control | activity at 100 µM (NCI-H196 (lung cancer)): 47.7% | POC (percent of control) NCI-H196 (NCI-H196 (lung cancer); [3]): 4.2% of control | POC (percent of control) NCI-H196 (NCI-H196 (lung cancer); [4]): 9.1% of control | activity at 100 µM (T47D (breast cancer)): 36.6% | POC (percent of control) T47D (T47D (breast cancer); [3]): 13.8% of control | POC (percent of control) T47D (T47D (breast cancer); [4]): 36% of control

Cc1cccc2c(CNS(=O)(=O)c3ccccc3)c[nH]c12 [Compound 6, N-[(7-methyl-1H-indol-3-yl)methyl]benzenesulfonamide]
activity at 100 µM [1]: 68.9% | POC (percent of control) BxPC3 [1, 3]: 33.4% of control | POC (percent of control) BxPC3 [1, 4]: 69.7% of control | activity at 100 µM (H293 (kidney cancer)): 62.6% | POC (percent of control) H293 (H293 (kidney cancer); [3]): 31.6% of control | POC (percent of control) H293 (H293 (kidney cancer); [4]): 49.6% of control | activity at 100 µM (HDF (normal cells)): 48.8% | POC (percent of control) HDF (HDF (normal cells); [3]): 37.7% of control | POC (percent of control) HDF (HDF (normal cells); [4]): 61.3% of control | activity at 100 µM (HeLa (cervical cancer)): 75.3% | POC (percent of control) HeLa (HeLa (cervical cancer); [3]): 47.3% of control | POC (percent of control) HeLa (HeLa (cervical cancer); [4]): 66.9% of control | activity at 100 µM [2]: 52.3% | POC (percent of control) MCF10A [2, 3]: 41.3% of control | POC (percent of control) MCF10A [2, 4]: 87.8% of control | activity at 100 µM (MCF7 (breast cancer)): 72% | POC (percent of control) MCF7 (MCF7 (breast cancer); [3]): 41% of control | POC (percent of control) MCF7 (MCF7 (breast cancer); [4]): 63.4% of control | activity at 100 µM (MDA-MB (breast cancer)): 57.2% | POC (percent of control) MDA-MB (MDA-MB (breast cancer); [3]): 58.5% of control | POC (percent of control) MDA-MB (MDA-MB (breast cancer); [4]): 67.3% of control | activity at 100 µM (NCI-H196 (lung cancer)): 64.3% | POC (percent of control) NCI-H196 (NCI-H196 (lung cancer); [3]): 34.3% of control | POC (percent of control) NCI-H196 (NCI-H196 (lung cancer); [4]): 23.7% of control | activity at 100 µM (T47D (breast cancer)): 23.7% | POC (percent of control) T47D (T47D (breast cancer); [3]): 19.7% of control | POC (percent of control) T47D (T47D (breast cancer); [4]): 39.1% of control

O=S(=O)(NCc1c[nH]c2ccccc12)c1ccc(Cl)cc1 [Compound 2, N-[(1H-indol-3-yl)methyl]-4-chlorobenzenesulfonamide]
activity at 100 µM [1]: 69% | POC (percent of control) BxPC3 [1, 4]: 86.4% of control | activity at 100 µM (H293 (kidney cancer)): 43.8% | POC (percent of control) H293 (H293 (kidney cancer); [3]): 20% of control | POC (percent of control) H293 (H293 (kidney cancer); [4]): 47.6% of control | activity at 100 µM (HDF (normal cells)): 49.3% | POC (percent of control) HDF (HDF (normal cells); [3]): 37.5% of control | POC (percent of control) HDF (HDF (normal cells); [4]): 57.6% of control | activity at 100 µM (HeLa (cervical cancer)): 64.6% | POC (percent of control) HeLa (HeLa (cervical cancer); [3]): 30.8% of control | POC (percent of control) HeLa (HeLa (cervical cancer); [4]): 57.5% of control | activity at 100 µM [2]: 42.9% | POC (percent of control) MCF10A [2, 3]: 23.7% of control | POC (percent of control) MCF10A [2, 4]: 58.7% of control | activity at 100 µM (MCF7 (breast cancer)): 70.1% | POC (percent of control) MCF7 (MCF7 (breast cancer); [3]): 25.1% of control | POC (percent of control) MCF7 (MCF7 (breast cancer); [4]): 56.9% of control | activity at 100 µM (MDA-MB (breast cancer)): 48.1% | POC (percent of control) MDA-MB (MDA-MB (breast cancer); [3]): 37.8% of control | POC (percent of control) MDA-MB (MDA-MB (breast cancer); [4]): 55.7% of control | activity at 100 µM (NCI-H196 (lung cancer)): 50.9% | POC (percent of control) NCI-H196 (NCI-H196 (lung cancer); [3]): 22.9% of control | POC (percent of control) NCI-H196 (NCI-H196 (lung cancer); [4]): 23.5% of control | activity at 100 µM (T47D (breast cancer)): 22.2% | POC (percent of control) T47D (T47D (breast cancer); [3]): 16.6% of control | POC (percent of control) T47D (T47D (breast cancer); [4]): 30.8% of control
